From PubChem BioAssay AID1745844 (Carcinogenic Potency Database (CPDB), 2022)
Activity calls are given as the source filed them. No rule for the calls is given here.

System: rodent lifetime carcinogenesis bioassay, tumor incidence TD50
Test: carcinogenic potency in animals, long-term in vivo studies, CPDB compilation (AID 1745844)
[1] = mouse, strain B6C3F1, males, by gavage, site: any site (literature study), lesion: several types, types named in the paper, dosed 103 weeks, study length 104 weeks
[2] = mouse, strain B6AKF1, females, oral dosing, site: any site (literature study), lesion: several types, types named in the paper, dosed 76 weeks, study length 76 weeks
[3] = mouse, strain B6AKF1, females, oral dosing, site: liver, lesion: hepatoma, dosed 76 weeks, study length 76 weeks
[4] = mouse, strain B6AKF1, females, oral dosing, site: lung, lesion: adenoma, dosed 76 weeks, study length 76 weeks
[5] = mouse, strain B6AKF1, males, oral dosing, site: any site (literature study), lesion: several types, types named in the paper, dosed 76 weeks, study length 76 weeks
[6] = mouse, strain B6AKF1, males, oral dosing, site: liver, lesion: hepatoma, dosed 76 weeks, study length 76 weeks
[7] = mouse, strain B6AKF1, males, oral dosing, site: lung, lesion: adenoma, dosed 76 weeks, study length 76 weeks
[8] = mouse, strain B6C3F1, females, oral dosing, site: any site (literature study), lesion: several types, types named in the paper, dosed 76 weeks, study length 76 weeks
[9] = mouse, strain B6C3F1, females, oral dosing, site: liver, lesion: hepatoma, dosed 76 weeks, study length 76 weeks
[10] = mouse, strain B6C3F1, females, oral dosing, site: lung, lesion: adenoma, dosed 76 weeks, study length 76 weeks
[11] = mouse, strain B6C3F1, males, oral dosing, site: any site (literature study), lesion: several types, types named in the paper, dosed 76 weeks, study length 76 weeks
[12] = mouse, strain B6C3F1, males, oral dosing, site: liver, lesion: hepatoma, dosed 76 weeks, study length 76 weeks
[13] = mouse, strain B6C3F1, males, oral dosing, site: lung, lesion: adenoma, dosed 76 weeks, study length 76 weeks

With `CC(Cl)CCl` (stereo unspecified) the TD50 (mouse, strain B6C3F1, females, by gavage, site: any site (literature study), lesion: several types, types named in the paper, dosed 103 weeks, study length 105 weeks) was 341 mg/kg/day, the TD50 (mouse, strain B6C3F1, females, by gavage, site: forestomach, lesion: squamous-cell carcinoma + squamous-cell papilloma, dosed 103 weeks, study length 105 weeks) was 1020 mg/kg/day and the TD50 (mouse, strain B6C3F1, females, by gavage, site: liver, lesion: hepatocellular adenoma + hepatocellular carcinoma + neoplastic nodule, dosed 103 weeks, study length 105 weeks) was 346 mg/kg/day. It also gave a TD50 (mouse, strain B6C3F1, females, by gavage, site: liver, lesion: hepatocellular adenoma + hepatocellular carcinoma, dosed 103 weeks, study length 105 weeks) of 346 mg/kg/day, a TD50 (mouse, strain B6C3F1, females, by gavage, site: liver, lesion: hepatocellular adenoma, dosed 103 weeks, study length 105 weeks) of 562 mg/kg/day and a TD50 (mouse, strain B6C3F1, males, by gavage, site: any site (literature study), lesion: several types, types named in the paper, dosed 103 weeks, study length 105 weeks) of 397 mg/kg/day. The TD50 (mouse, strain B6C3F1, males, by gavage, site: forestomach, lesion: squamous-cell papilloma, dosed 103 weeks, study length 105 weeks) was 1520 mg/kg/day, the TD50 (mouse, strain B6C3F1, males, by gavage, site: liver, lesion: hepatocellular adenoma + hepatocellular carcinoma + neoplastic nodule, dosed 103 weeks, study length 105 weeks) was 229 mg/kg/day and the TD50 (mouse, strain B6C3F1, males, by gavage, site: liver, lesion: hepatocellular adenoma + hepatocellular carcinoma, dosed 103 weeks, study length 105 weeks) was 229 mg/kg/day. For the same compound, the TD50 (mouse, strain B6C3F1, males, by gavage, site: liver, lesion: hepatocellular adenoma, dosed 103 weeks, study length 105 weeks) was 384 mg/kg/day, the TD50 (mouse, strain B6C3F1, males, by gavage, site: lung, lesion: alveolar/bronchiolar adenoma + alveolar/bronchiolar carcinoma, dosed 103 weeks, study length 105 weeks) was 5070 mg/kg/day and the TD50 (rat, strain Fischer 344, females, by gavage, site: any site (literature study), lesion: several types, types named in the paper, dosed 103 weeks, study length 105 weeks) was 240 mg/kg/day. For the same compound, the TD50 (rat, strain Fischer 344, females, by gavage, site: mammary gland, lesion: adenocarcinoma, NOS, dosed 103 weeks, study length 105 weeks) was 767 mg/kg/day, the TD50 (rat, strain Fischer 344, males, by gavage, site: any site (literature study), lesion: several types, types named in the paper, dosed 103 weeks, study length 106 weeks) was 69.7 mg/kg/day (inactive) and the TD50 (rat, strain Fischer 344, males, by gavage, site: liver, lesion: hepatocellular adenoma + hepatocellular carcinoma + neoplastic nodule, dosed 103 weeks, study length 106 weeks) was 2570 mg/kg/day.
In the case of `CCCCCCC(=O)C/C=C/CCCCCCCC(=O)OC`, the TD50 (mouse, strain ST/a, both sexes, in feed, site: all sites, lesion: malignant lymphoma, dosed 42 weeks, study length 84 weeks) is reported as 2940 mg/kg/day (inactive).
With `ClCC(Cl)(Cl)Cl` the TD50 (mouse, strain B6C3F1, females, by gavage, site: any site (literature study), lesion: several types, types named in the paper, dosed 103 weeks, study length 104 weeks) was 110 mg/kg/day, the TD50 (mouse, strain B6C3F1, females, by gavage, site: liver, lesion: hepatocellular adenoma + hepatocellular carcinoma + neoplastic nodule, dosed 103 weeks, study length 104 weeks) was 175 mg/kg/day and the TD50 (mouse, strain B6C3F1, females, by gavage, site: liver, lesion: hepatocellular adenoma + hepatocellular carcinoma, dosed 103 weeks, study length 104 weeks) was 175 mg/kg/day. For the same compound, the TD50 (mouse, strain B6C3F1, females, by gavage, site: liver, lesion: hepatocellular adenoma, dosed 103 weeks, study length 104 weeks) was 254 mg/kg/day, the TD50 (mouse, strain B6C3F1, females, by gavage, site: liver, lesion: hepatocellular carcinoma, dosed 103 weeks, study length 104 weeks) was 640 mg/kg/day and the TD50 (mouse, strain B6C3F1, females, by gavage, site: lung, lesion: alveolar/bronchiolar adenoma + alveolar/bronchiolar carcinoma, dosed 103 weeks, study length 104 weeks) was 1820 mg/kg/day. For the same compound, the TD50 [1] was 97.9 mg/kg/day, the TD50 (mouse, strain B6C3F1, males, by gavage, site: liver, lesion: hepatocellular adenoma + hepatocellular carcinoma + neoplastic nodule, dosed 103 weeks, study length 104 weeks) was 124 mg/kg/day and the TD50 (mouse, strain B6C3F1, males, by gavage, site: liver, lesion: hepatocellular adenoma + hepatocellular carcinoma, dosed 103 weeks, study length 104 weeks) was 124 mg/kg/day. For the same compound, the TD50 (mouse, strain B6C3F1, males, by gavage, site: liver, lesion: hepatocellular adenoma, dosed 103 weeks, study length 104 weeks) was 190 mg/kg/day, the TD50 (mouse, strain B6C3F1, males, by gavage, site: lung, lesion: alveolar/bronchiolar adenoma + alveolar/bronchiolar carcinoma, dosed 103 weeks, study length 104 weeks) was 1330 mg/kg/day and the TD50 (rat, strain Fischer 344, females, by gavage, site: liver, lesion: hepatocellular adenoma + hepatocellular carcinoma + neoplastic nodule, dosed 103 weeks, study length 104 weeks) was 3980 mg/kg/day. The TD50 (rat, strain Fischer 344, females, by gavage, site: mammary gland, lesion: fibroadenoma, dosed 103 weeks, study length 104 weeks) was 170 mg/kg/day (inactive), the TD50 (rat, strain Fischer 344, males, by gavage, site: any site (literature study), lesion: several types, types named in the paper, dosed 103 weeks, study length 104 weeks) was 464 mg/kg/day and the TD50 (rat, strain Fischer 344, males, by gavage, site: liver, lesion: hepatocellular adenoma + hepatocellular carcinoma + neoplastic nodule, dosed 103 weeks, study length 104 weeks) was 1130 mg/kg/day. The TD50 (rat, strain Fischer 344, males, by gavage, site: multiple organs + peritoneum + tunica vaginalis, lesion: mesothelioma, malignant + mesothelioma, NOS, dosed 103 weeks, study length 104 weeks) was 842 mg/kg/day (inactive).
With `O=C1OC(CN2CCOCC2)CN1/N=C/c1ccc([N+](=O)[O-])o1` (stereo unspecified) the TD50 (rat, strain Sprague-Dawley, females, in feed, site: all sites, lesion: lymphoblastic lymphoma, dosed 46 weeks, study length 66 weeks) was 39 mg/kg/day, the TD50 (rat, strain Sprague-Dawley, females, in feed, site: any site (literature study), lesion: several types, types named in the paper, dosed 46 weeks, study length 66 weeks) was 2.81 mg/kg/day and the TD50 (rat, strain Sprague-Dawley, females, in feed, site: kidney/pelvis, lesion: transitional-cell carcinoma, dosed 46 weeks, study length 66 weeks) was 149 mg/kg/day. The TD50 (rat, strain Sprague-Dawley, females, in feed, site: mammary gland, lesion: adenocarcinoma, dosed 46 weeks, study length 66 weeks) was 6.33 mg/kg/day and the TD50 (rat, strain Sprague-Dawley, females, in feed, site: mammary gland, lesion: several types, types named in the paper, dosed 46 weeks, study length 66 weeks) was 2.81 mg/kg/day.
With `Cn1c(=O)c2[nH]cnc2n(C)c1=O` the TD50 (mouse, strain B6C3F1, females, by gavage, site: all sites, lesion: histiocytic sarcoma, dosed 103 weeks, study length 104 weeks) was 20.5 mg/kg/day (inactive), the carcinogen call [1] was “negative (inactive)” and the carcinogen call (rat, strain Fischer 344, females, by gavage, site: any site (literature study), lesion: several types, types named in the paper, dosed 104 weeks, study length 104 weeks) was “negative (inactive)”. The carcinogen call (rat, strain Fischer 344, males, by gavage, site: any site (literature study), lesion: several types, types named in the paper, dosed 104 weeks, study length 104 weeks) was “negative (inactive)”.
For `CC(O)CN(CC(C)O)CC(C)O` (stereo unspecified), the carcinogen call (rat, strain Wistar, males, in feed, site: liver, lesion: one or several types, types not named, dosed 102 weeks, study length 102 weeks) was “negative (inactive)”.
In the case of `ClC1=C(Cl)C2(Cl)C3C(Cl)OC(Cl)C3C1(Cl)C2(Cl)Cl` (stereo unspecified), the carcinogen call [2] is reported as “negative (inactive)”, the carcinogen call [3] is reported as “negative (inactive)” and the carcinogen call [4] is reported as “negative (inactive)”. The TD50 [5] was 0.136 mg/kg/day (inactive), the carcinogen call [6] was “negative (inactive)” and the TD50 [7] was 0.146 mg/kg/day (inactive). For the same compound, the TD50 [8] was 0.277 mg/kg/day (inactive), the carcinogen call [9] was “negative (inactive)” and the TD50 [10] was 0.571 mg/kg/day (inactive). For the same compound, the TD50 [11] was 0.242 mg/kg/day (inactive), the TD50 [12] was 0.5 mg/kg/day (inactive) and the TD50 [13] was 0.5 mg/kg/day (inactive).
`CC(=O)[O][Sn]([c]1ccccc1)([c]1ccccc1)[c]1ccccc1` was tested, and the TD50 [2] was 437 mg/kg/day (inactive), the carcinogen call [3] was “negative (inactive)” and the TD50 [4] was 964 mg/kg/day (inactive). For the same compound, the TD50 [5] was 307 mg/kg/day (inactive), the TD50 [6] was 241 mg/kg/day (inactive) and the carcinogen call [7] was “negative (inactive)”. For the same compound, the TD50 [8] was 284 mg/kg/day (inactive), the TD50 [9] was 909 mg/kg/day (inactive) and the TD50 [10] was 440 mg/kg/day (inactive). The TD50 [11] was 117 mg/kg/day (inactive), the TD50 [12] was 407 mg/kg/day (inactive) and the TD50 [13] was 262 mg/kg/day (inactive).
With `NCCCCCCCCCCC(=O)O` the TD50 (mouse, strain B6C3F1, females, in feed, site: any site (literature study), lesion: several types, types named in the paper, dosed 103 weeks, study length 109 weeks) was 15600 mg/kg/day (inactive), the TD50 (mouse, strain B6C3F1, females, in feed, site: liver, lesion: hepatocellular adenoma + hepatocellular carcinoma + neoplastic nodule, dosed 103 weeks, study length 109 weeks) was 37900 mg/kg/day and the TD50 (mouse, strain B6C3F1, females, in feed, site: lung, lesion: alveolar/bronchiolar adenoma + alveolar/bronchiolar carcinoma, dosed 103 weeks, study length 109 weeks) was 18800 mg/kg/day. The TD50 (mouse, strain B6C3F1, males, in feed, site: all sites, lesion: malignant lymphoma, dosed 103 weeks, study length 109 weeks) was 4970 mg/kg/day (inactive), the TD50 (mouse, strain B6C3F1, males, in feed, site: any site (literature study), lesion: several types, types named in the paper, dosed 103 weeks, study length 109 weeks) was 6500 mg/kg/day and the TD50 (mouse, strain B6C3F1, males, in feed, site: liver, lesion: hepatocellular adenoma + hepatocellular carcinoma + neoplastic nodule, dosed 103 weeks, study length 109 weeks) was 6250 mg/kg/day. The TD50 (rat, strain Fischer 344, females, in feed, site: any site (literature study), lesion: several types, types named in the paper, dosed 104 weeks, study length 109 weeks) was 1250 mg/kg/day (inactive), the TD50 (rat, strain Fischer 344, females, in feed, site: liver, lesion: hepatocellular adenoma + hepatocellular carcinoma + neoplastic nodule, dosed 104 weeks, study length 109 weeks) was 44600 mg/kg/day and the TD50 (rat, strain Fischer 344, males, in feed, site: any site (literature study), lesion: several types, types named in the paper, dosed 104 weeks, study length 109 weeks) was 802 mg/kg/day. It also gave a TD50 (rat, strain Fischer 344, males, in feed, site: liver + urinary bladder, lesion: hepatocellular carcinoma + neoplastic nodule + transitional-cell carcinoma, dosed 104 weeks, study length 109 weeks) of 833 mg/kg/day, a TD50 (rat, strain Fischer 344, males, in feed, site: liver, lesion: hepatocellular adenoma + hepatocellular carcinoma + neoplastic nodule, dosed 104 weeks, study length 109 weeks) of 1100 mg/kg/day and a TD50 (rat, strain Fischer 344, males, in feed, site: liver, lesion: hepatocellular carcinoma + neoplastic nodule, dosed 104 weeks, study length 109 weeks) of 1100 mg/kg/day. It also gave a TD50 (rat, strain Fischer 344, males, in feed, site: liver, lesion: neoplastic nodule, dosed 104 weeks, study length 109 weeks) of 1290 mg/kg/day, a TD50 (rat, strain Fischer 344, males, in feed, site: mammary gland, lesion: fibroadenoma, dosed 104 weeks, study length 109 weeks) of 2910 mg/kg/day and a TD50 (rat, strain Fischer 344, males, in feed, site: urinary bladder, lesion: transitional-cell carcinoma, dosed 104 weeks, study length 109 weeks) of 3170 mg/kg/day.
